Results as given in ChEMBL document CHEMBL1132568, “Synthesis, pharmacological evaluation, and structure-activity relationship and quantitative structure-activity relationship studies on novel derivatives of 2,4-diamino-6,7-dimethoxyquinazoline alpha1-adrenoceptor antagonists” (J Med Chem, 1999).
pIC50, pKi: −log10 of the molar value.

What follows are compounds tested against T1, 5-hydroxytryptamine receptor 1A (Rattus norvegicus, UniProt P19327) (assay: Inhibitory concentration against 5-hydroxytryptamine 1A receptor (Inactive at >1000 nM concentration)).
T1 sequence (P19327 whole entry): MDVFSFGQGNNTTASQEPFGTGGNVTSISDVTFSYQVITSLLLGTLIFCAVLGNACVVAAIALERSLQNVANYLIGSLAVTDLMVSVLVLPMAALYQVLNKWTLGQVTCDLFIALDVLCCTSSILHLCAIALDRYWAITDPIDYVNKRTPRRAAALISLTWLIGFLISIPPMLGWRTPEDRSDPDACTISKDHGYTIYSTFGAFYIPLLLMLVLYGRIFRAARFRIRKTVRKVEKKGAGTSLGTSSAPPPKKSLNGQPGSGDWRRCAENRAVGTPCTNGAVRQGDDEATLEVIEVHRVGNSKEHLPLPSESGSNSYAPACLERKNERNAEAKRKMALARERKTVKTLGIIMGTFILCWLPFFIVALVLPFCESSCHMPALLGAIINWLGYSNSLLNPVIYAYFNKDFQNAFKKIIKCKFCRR

SMILES	pIC50
COc1cc2nc(N3CCN(C(=O)COc4c(OC)cccc4OC)CC3)nc(N)c2cc1OC	< 6.00
COc1cc2nc(N3CCc4c(ccc5ccccc45)C3)nc(N)c2cc1OC	< 6.00
COc1cc2nc(N3CCN(C(=O)C(C)(C)C)CC3)nc(N)c2cc1OC	< 6.00
COc1cc2nc(N3CC[N+]([O-])(Cc4ccccc4)CC3)nc(N)c2cc1OC	< 6.00
COc1cc2nc(N3CCN(C(=O)C(c4ccccc4)c4ccccc4)CC3)nc(N)c2cc1OC	< 6.00

The compounds below were run against T2, Adrenergic receptor alpha-1 (Rattus norvegicus, UniProt P15823+P23944+P43140) (assay: Inhibition of Alpha-1 adrenergic receptor in rat cortex membrane).
T2 sequence (P15823 whole entry): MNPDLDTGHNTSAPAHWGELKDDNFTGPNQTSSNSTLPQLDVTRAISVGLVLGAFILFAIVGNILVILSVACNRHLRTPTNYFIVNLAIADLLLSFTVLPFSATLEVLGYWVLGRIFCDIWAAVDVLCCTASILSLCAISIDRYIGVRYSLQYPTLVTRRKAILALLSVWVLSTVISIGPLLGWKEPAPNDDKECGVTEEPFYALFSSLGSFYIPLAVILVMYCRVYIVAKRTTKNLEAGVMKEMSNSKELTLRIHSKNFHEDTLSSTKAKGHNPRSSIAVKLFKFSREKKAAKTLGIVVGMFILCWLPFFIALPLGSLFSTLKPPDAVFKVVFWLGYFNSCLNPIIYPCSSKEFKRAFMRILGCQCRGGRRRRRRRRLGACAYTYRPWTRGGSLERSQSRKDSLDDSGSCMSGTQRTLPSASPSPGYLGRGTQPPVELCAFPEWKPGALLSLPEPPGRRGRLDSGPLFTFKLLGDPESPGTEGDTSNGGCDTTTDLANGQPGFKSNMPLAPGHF
T2 sequence (P23944 whole entry): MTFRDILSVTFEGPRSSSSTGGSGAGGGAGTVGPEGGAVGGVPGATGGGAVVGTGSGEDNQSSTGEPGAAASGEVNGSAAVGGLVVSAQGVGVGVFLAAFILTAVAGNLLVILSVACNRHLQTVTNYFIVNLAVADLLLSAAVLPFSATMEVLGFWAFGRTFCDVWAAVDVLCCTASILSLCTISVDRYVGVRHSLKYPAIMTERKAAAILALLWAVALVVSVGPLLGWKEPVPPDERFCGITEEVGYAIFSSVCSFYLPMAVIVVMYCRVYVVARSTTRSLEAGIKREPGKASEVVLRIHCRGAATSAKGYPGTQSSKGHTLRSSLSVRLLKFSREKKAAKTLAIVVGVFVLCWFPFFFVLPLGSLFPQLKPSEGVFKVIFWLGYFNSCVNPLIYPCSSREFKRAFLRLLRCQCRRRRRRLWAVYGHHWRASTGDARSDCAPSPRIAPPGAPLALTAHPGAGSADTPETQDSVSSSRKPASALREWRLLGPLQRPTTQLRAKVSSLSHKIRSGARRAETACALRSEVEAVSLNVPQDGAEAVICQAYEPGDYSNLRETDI
T2 sequence (P43140 whole entry): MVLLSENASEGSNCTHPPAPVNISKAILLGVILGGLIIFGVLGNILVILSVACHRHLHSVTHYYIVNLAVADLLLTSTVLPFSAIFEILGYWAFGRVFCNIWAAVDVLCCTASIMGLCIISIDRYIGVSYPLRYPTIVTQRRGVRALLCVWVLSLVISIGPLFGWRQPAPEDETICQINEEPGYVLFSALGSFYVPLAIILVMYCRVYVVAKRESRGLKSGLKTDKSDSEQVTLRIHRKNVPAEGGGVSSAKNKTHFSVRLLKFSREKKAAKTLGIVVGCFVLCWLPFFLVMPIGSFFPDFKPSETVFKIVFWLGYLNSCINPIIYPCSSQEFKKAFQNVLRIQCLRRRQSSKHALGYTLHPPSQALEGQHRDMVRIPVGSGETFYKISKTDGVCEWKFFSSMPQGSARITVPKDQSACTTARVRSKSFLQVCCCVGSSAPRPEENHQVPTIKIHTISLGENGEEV
Format: cell membranes

SMILES	IC50 [nM]
COc1cc2nc(N3CCN(C(=O)COc4c(OC)cccc4OC)CC3)nc(N)c2cc1OC	6
COc1cc2nc(N3CCc4c(ccc5ccccc45)C3)nc(N)c2cc1OC	1.6
COc1cc2nc(N3CCN(C(=O)C(C)(C)C)CC3)nc(N)c2cc1OC	340
COc1cc2nc(N3CC[N+]([O-])(Cc4ccccc4)CC3)nc(N)c2cc1OC	> 1000
COc1cc2nc(N3CCN(C(=O)C(c4ccccc4)c4ccccc4)CC3)nc(N)c2cc1OC	3.2

These compounds were tested against D(2) dopamine receptor (Rattus norvegicus, UniProt P61169) (assay: Inhibitory concentration against Dopamine receptor D2 (Inactive at >1000 nM concentration)).
Sequence of D(2) dopamine receptor (P61169 whole entry): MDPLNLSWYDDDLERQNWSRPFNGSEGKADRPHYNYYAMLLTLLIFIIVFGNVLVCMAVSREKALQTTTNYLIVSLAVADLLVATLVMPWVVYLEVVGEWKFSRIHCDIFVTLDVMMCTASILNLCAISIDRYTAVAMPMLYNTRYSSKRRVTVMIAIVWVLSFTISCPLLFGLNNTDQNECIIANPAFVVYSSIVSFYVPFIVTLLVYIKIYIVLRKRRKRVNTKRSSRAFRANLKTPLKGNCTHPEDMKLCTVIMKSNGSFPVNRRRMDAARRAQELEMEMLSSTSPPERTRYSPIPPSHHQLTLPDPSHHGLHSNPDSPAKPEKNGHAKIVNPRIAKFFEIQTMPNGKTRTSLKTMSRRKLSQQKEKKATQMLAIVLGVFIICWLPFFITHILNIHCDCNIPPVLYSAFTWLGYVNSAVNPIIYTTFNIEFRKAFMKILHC

SMILES	pIC50
COc1cc2nc(N3CCN(C(=O)COc4c(OC)cccc4OC)CC3)nc(N)c2cc1OC	< 6.00
COc1cc2nc(N3CCc4c(ccc5ccccc45)C3)nc(N)c2cc1OC	< 6.00
COc1cc2nc(N3CCN(C(=O)C(C)(C)C)CC3)nc(N)c2cc1OC	< 6.00
COc1cc2nc(N3CC[N+]([O-])(Cc4ccccc4)CC3)nc(N)c2cc1OC	< 6.00
COc1cc2nc(N3CCN(C(=O)C(c4ccccc4)c4ccccc4)CC3)nc(N)c2cc1OC	< 6.00

What follows are compounds tested against 5-hydroxytryptamine receptor 2A (Rattus norvegicus, UniProt P14842) (assay: Inhibitory concentration against 5-hydroxytryptamine 2A receptor (Inactive at >1000 nM concentration)).
Sequence of 5-hydroxytryptamine receptor 2A (P14842 whole entry): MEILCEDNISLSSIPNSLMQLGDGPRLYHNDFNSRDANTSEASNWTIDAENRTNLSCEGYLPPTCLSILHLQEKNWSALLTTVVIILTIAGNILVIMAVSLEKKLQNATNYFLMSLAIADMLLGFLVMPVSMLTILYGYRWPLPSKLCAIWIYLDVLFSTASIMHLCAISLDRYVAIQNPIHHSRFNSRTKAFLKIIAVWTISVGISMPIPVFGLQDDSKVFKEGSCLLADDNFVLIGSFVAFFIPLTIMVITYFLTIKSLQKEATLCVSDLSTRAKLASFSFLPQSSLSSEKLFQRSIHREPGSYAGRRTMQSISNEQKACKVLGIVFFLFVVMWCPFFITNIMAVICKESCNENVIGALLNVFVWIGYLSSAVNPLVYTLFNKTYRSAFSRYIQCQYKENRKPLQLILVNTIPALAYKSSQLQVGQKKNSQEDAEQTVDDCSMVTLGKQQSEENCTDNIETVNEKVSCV

SMILES	pIC50
COc1cc2nc(N3CCN(C(=O)COc4c(OC)cccc4OC)CC3)nc(N)c2cc1OC	< 6.00
COc1cc2nc(N3CCc4c(ccc5ccccc45)C3)nc(N)c2cc1OC	< 6.00
COc1cc2nc(N3CCN(C(=O)C(C)(C)C)CC3)nc(N)c2cc1OC	< 6.00
COc1cc2nc(N3CC[N+]([O-])(Cc4ccccc4)CC3)nc(N)c2cc1OC	< 6.00
COc1cc2nc(N3CCN(C(=O)C(c4ccccc4)c4ccccc4)CC3)nc(N)c2cc1OC	< 6.00

What follows are compounds tested against T3, Alpha-1A adrenergic receptor (Rattus norvegicus, UniProt P43140) (assay: The binding affinity towards Alpha-1A adrenergic receptor in the COS cell line.).
T3 sequence (P43140 whole entry): T2 sequence (P43140 whole entry)
Format: cell-based

SMILES	pKi
COc1cc2nc(N3CCN(C(=O)COc4c(OC)cccc4OC)CC3)nc(N)c2cc1OC	7.44

What follows are compounds tested against T4, Adrenergic receptor alpha-2 (Rattus norvegicus, UniProt P22086+P19328+P22909) (assay: Inhibitory concentration against Alpha-2 adrenergic receptor).
T4 sequence (P22086 whole entry): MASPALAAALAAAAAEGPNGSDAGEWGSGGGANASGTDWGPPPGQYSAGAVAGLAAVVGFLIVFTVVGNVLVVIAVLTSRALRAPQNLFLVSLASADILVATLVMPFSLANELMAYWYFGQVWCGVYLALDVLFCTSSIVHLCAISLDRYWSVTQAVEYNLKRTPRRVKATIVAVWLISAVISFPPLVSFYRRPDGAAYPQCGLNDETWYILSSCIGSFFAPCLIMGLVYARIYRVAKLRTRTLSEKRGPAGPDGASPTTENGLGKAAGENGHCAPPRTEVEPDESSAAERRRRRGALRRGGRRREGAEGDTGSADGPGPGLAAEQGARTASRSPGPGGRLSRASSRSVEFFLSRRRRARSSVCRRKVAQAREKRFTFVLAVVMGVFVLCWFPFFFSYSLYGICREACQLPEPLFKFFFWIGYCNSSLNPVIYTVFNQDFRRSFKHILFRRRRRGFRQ
T4 sequence (P19328 whole entry): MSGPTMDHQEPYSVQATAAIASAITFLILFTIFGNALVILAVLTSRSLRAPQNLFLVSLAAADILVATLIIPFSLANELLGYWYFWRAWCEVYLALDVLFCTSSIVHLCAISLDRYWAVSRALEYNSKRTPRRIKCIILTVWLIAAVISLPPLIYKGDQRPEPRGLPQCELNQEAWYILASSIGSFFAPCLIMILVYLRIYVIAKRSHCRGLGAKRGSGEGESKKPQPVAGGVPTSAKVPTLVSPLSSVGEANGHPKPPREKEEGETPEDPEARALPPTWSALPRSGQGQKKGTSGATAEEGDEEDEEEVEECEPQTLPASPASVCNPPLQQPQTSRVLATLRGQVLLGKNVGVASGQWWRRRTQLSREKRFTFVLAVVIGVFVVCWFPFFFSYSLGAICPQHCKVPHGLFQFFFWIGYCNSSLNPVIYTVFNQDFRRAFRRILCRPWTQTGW
T4 sequence (P22909 whole entry): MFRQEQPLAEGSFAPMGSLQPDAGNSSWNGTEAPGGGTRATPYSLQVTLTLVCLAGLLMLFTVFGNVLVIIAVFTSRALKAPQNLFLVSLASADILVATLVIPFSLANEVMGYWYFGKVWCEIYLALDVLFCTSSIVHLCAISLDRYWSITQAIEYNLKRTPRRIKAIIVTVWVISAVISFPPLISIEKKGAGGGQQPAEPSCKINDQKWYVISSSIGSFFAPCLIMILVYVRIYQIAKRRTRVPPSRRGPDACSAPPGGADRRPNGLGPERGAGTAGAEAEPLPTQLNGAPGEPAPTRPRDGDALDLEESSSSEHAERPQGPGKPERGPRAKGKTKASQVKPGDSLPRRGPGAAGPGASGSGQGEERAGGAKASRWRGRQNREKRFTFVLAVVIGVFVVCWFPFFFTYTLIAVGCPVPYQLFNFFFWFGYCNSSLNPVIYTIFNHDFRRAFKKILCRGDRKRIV
Format: protein assay

SMILES	IC50 [nM]
COc1cc2nc(N3CCN(C(=O)COc4c(OC)cccc4OC)CC3)nc(N)c2cc1OC	> 1000
COc1cc2nc(N3CCc4c(ccc5ccccc45)C3)nc(N)c2cc1OC	> 1000
COc1cc2nc(N3CCN(C(=O)C(C)(C)C)CC3)nc(N)c2cc1OC	> 1000
COc1cc2nc(N3CC[N+]([O-])(Cc4ccccc4)CC3)nc(N)c2cc1OC	> 1000
COc1cc2nc(N3CCN(C(=O)C(c4ccccc4)c4ccccc4)CC3)nc(N)c2cc1OC	> 1000
